# Laboratory results taken from patent US20230414556A1, “NANO-HEPATIC TARGETED EPIGALLOCATECHIN GALLATE IN DYSLIPIDEMIA” (priority 2022, published 2023).
# Read-outs that look alike come from different tables or passages of the source.
# Assays:
# [1] = Plasma lipid profile in high-fat diet mice (nutritionally induced hypercholesterolemia model); format: in vivo, C57BL/6 mice; settings: oral
# Procedure: High fat diet male C57BL/6 mice aged 4-5 weeks and weighing 20-25 g were purchased from Taconic Biosciences, Inc. (Germantown, NY, USA). All animal studies were conducted at the animal facility of the Veteran Affairs Medical Center (VAMC) (Albany, NY, USA) in accordance with institutional guidelines for humane animal treatment and approved by the Institutional Animal Care & Use Committee (IACUC) at VAMC. Animals were maintained under specific pathogen-free conditions and housed under controlled conditions of temperature (20-24° C.) and humidity (60-70%) and 12 h light/dark cycle with ad libitum access to water and food. The mice were grouped into five arms (n=5). Administrated orally to the mice were water for vehicle control (VCtrl), Void nanoparticle (void NP), EGCG (30 mg/kg), Nano EGCG (NP-EGCG) and Nano-targeted EGCG (NPT-EGCG) at 30 mg/kg equivalent EGCG for 3 weeks. Blood was collected from retro-orbital after the 24 h, week 1, week 2 and week 3 treatment to measure the levels of plasma total cholesterol, LDL-C, HDL, free and cholesteryl esters. Animals were humanely sacrificed, and liver tissue was collected. The plasma contents of total cholesterol, LDL-C, HDL-C, free and cholesteryl esters were measured with the Cholesterol-HDL and LDL/VLDL assay kit according to the manufacturer's instructions (Abcam, Boston, MA, USA). Statistical analysis was performed using GraphPad Prism (San Diego, CA, USA) (Wilkinson, 1956). All data are presented as mean±standard deviation of the mean. The Mann-Whitney nonparametric test was used to determine differences in the groups. ***P<0.001, **P<0.01, *P<0.05 were considered as significant.
# [2] = cited from earlier work
# [3] = molecular target: T1, Hydroxy-3-methyl-glutaryl-CoA reductase (HMGR) (Homo sapiens, UniProt P04035); settings: competitive binding to the cofactor site; cited from earlier work
# T1 sequence (P04035 426-888 limits assumed): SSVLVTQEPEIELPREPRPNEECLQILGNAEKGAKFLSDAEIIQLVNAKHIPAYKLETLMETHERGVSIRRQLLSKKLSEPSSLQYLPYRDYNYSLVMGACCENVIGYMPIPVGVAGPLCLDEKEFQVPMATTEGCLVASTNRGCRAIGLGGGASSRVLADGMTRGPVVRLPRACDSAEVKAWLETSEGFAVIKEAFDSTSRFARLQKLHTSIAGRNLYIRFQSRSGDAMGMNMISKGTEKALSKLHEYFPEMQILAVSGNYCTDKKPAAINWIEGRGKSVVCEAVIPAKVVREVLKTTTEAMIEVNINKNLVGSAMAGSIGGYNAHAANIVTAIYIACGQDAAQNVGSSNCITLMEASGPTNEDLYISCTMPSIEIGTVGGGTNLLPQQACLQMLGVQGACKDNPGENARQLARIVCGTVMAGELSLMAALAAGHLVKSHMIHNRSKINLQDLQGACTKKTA
# [4] = 30 mg/kg, week 3, compared to vehicle control and void NP
substance,measurement,setting,value
(−)-epigallocatechin gallate [EGCG],decrease of plasma total cholesterol,"[1]; 30 mg/kg (equivalent) EGCG, week 3, compared to vehicle control and void NP",28%
same,plasma cholesteryl esters (in words),"[1]; 30 mg/kg, week 2 and week 3",significant decrease
same,decrease in plasma LDL-C,"[1]; 30 mg/kg, week 3",3%
same,increase in plasma HDL-C,"[1]; 30 mg/kg, week 3",10%
same,levels of free cholesterol in plasma (in words),[1]; [4],significant decrease
same,reduction of plasma cholesteryl esters,[1]; [4],30%
same,reduction of plasma free cholesterol,[1]; [4],11%
same,stability of EGCG,[2]; acidic solutions (pH<4),very stable
same,stability of EGCG,[2]; neutral and alkaline solutions,extremely unstable and degraded almost completely in a few minutes
same,inhibition of in vitro activity of HMGR,[3],potently inhibits
